Article PMC10287566, “Signaling-specific inhibition of the CB1 receptor for cannabis use disorder: phase 1 and phase 2a randomized trials” (Nature Medicine, 2023)
Values joined by “and” are separate entries in the source; they are usually repeats but may differ in a detail not shown here. Equal entries are not always repeated.

Legend:
Assay in all cases: Eurofins binding screen
[1] = molecular target: Histamine H2 (Homo sapiens, UniProt P25021)
[2] = molecular target: Adenosine A1 (Homo sapiens, UniProt P30542)
[3] = molecular target: Adenosine A3 (Homo sapiens, UniProt P0DMS8)
[4] = molecular target: Norepinephrine transporter NET (Homo sapiens, UniProt P23975)
[5] = test system: sigma; details: 10 µM
[6] = molecular target: Vasoactive intestinal peptide VPAC1 (VIP1) (Homo sapiens, UniProt P32241)
[7] = molecular target: Angiotensin-II AT2 (Homo sapiens, UniProt P50052)
[8] = test system: Somatostatin sst; details: 10 µM
[9] = test system: Serotonin 5-HT1B; details: 10 µM
[10] = molecular target: Cholecystokinin CCK2 (CCKB) (Homo sapiens, UniProt P32239)
[11] = molecular target: Serotonin 5-HT5a (Homo sapiens, UniProt P47898)
[12] = test system: Calcium channels Ca2+-L; details: 10 µM
[13] = molecular target: Dopamine D3 (Homo sapiens, UniProt P35462)
[14] = molecular target: Serotonin 5-HT2C (Homo sapiens, UniProt P28335)
[15] = molecular target: Neurotensin NTS1 (NT1) (Homo sapiens, UniProt P30989)
[16] = molecular target: Adrenergic beta2 (Homo sapiens, UniProt P07550)
[17] = molecular target: Melatonin MT1 (ML1A) (Homo sapiens, UniProt P48039)
[18] = molecular target: PPAR gamma (Homo sapiens, UniProt P37231)
[19] = molecular target: PR (progesterone receptor) (Homo sapiens, UniProt P06401)
[20] = molecular target: PAC1 - PACAP (Homo sapiens, UniProt P41586)
[21] = molecular target: Muscarinic M3 (Homo sapiens, UniProt P20309)
[22] = molecular target: Serotonin 5-HT3 (Homo sapiens, UniProt P46098)
[23] = molecular target: Dopamine D5 (Homo sapiens, UniProt P21918)
[24] = test system: ER; details: 10 µM
[25] = molecular target: Muscarinic M4 (Homo sapiens, UniProt P08173)
[26] = molecular target: Neurokinin NK2 (Homo sapiens, UniProt P21452)
[27] = molecular target: Prostanoid EP4 (Homo sapiens, UniProt P35408)
[28] = molecular target: Galanin GAL1 (Homo sapiens, UniProt P47211)
[29] = molecular target: Adenosine A2A (Homo sapiens, UniProt P29274)
[30] = test system: Kinase PDGF; details: 10 µM
[31] = molecular target: Neurokinin NK3 (Homo sapiens, UniProt P29371)
[32] = molecular target: Endothelin ETA (Homo sapiens, UniProt P25101)
[33] = molecular target: Opioid delta2 (DOP) (Homo sapiens, UniProt P41143)
[34] = molecular target: Adrenergic beta1 (Homo sapiens, UniProt P08588)
[35] = molecular target: Histamine H1 (Homo sapiens, UniProt P35367)
[36] = test system: Opioid kappa (KOP); details: 10 µM
[37] = molecular target: Muscarinic M5 (Homo sapiens, UniProt P08912)
[38] = test system: TNF-alpha; details: 10 µM
[39] = molecular target: Neurokinin NK1 (Homo sapiens, UniProt P25103)
[40] = molecular target: NOP (ORL1) (Homo sapiens, UniProt P41146)
[41] = test system: Purinergic channels P2X; details: 10 µM
[42] = molecular target: Serotonin 5-HT7 (Homo sapiens, UniProt P34969)
[43] = test system: Bombesin BB; details: 10 µM
[44] = molecular target: Serotonin 5-HT1A (Homo sapiens, UniProt P08908)
[45] = molecular target: Serotonin 5-HT6 (Homo sapiens, UniProt P50406)
[46] = read-out: Percent inhibition of control specific binding

Sequence of PR (progesterone receptor) (P06401 whole entry): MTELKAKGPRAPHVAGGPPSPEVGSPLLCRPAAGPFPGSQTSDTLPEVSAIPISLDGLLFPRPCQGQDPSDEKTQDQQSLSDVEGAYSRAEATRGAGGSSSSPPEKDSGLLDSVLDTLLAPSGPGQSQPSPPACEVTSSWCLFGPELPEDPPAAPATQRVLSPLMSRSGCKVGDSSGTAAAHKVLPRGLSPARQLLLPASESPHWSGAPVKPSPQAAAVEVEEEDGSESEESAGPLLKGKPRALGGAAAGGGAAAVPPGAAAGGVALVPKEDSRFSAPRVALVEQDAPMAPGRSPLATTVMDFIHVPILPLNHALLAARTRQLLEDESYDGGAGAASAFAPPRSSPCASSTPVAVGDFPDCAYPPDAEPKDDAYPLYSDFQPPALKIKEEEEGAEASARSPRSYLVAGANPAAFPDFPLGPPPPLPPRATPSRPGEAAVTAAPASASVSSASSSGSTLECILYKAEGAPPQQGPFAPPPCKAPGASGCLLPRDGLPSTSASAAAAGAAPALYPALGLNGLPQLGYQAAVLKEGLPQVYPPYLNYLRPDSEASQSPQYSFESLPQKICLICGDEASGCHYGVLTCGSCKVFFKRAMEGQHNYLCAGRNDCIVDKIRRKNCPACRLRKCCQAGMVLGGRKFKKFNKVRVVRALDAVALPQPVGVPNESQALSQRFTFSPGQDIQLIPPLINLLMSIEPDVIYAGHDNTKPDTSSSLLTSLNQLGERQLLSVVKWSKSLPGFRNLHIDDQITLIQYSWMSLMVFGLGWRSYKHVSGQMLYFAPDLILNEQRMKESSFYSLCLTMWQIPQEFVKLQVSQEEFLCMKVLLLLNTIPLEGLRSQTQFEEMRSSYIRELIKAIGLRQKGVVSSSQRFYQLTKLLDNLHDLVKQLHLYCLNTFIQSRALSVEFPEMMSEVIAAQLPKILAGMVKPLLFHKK
Sequence of NOP (ORL1) (P41146 whole entry): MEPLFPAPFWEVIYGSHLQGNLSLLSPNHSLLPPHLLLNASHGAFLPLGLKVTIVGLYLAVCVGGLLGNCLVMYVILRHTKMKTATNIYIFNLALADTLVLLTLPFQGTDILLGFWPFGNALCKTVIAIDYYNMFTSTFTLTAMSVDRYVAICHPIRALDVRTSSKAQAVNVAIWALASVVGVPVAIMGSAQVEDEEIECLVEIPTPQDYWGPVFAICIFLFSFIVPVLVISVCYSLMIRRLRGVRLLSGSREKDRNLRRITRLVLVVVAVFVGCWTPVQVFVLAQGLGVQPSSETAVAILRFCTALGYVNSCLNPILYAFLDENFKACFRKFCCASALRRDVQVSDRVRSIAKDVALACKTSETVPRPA
Sequence of Serotonin 5-HT5a (P47898 whole entry): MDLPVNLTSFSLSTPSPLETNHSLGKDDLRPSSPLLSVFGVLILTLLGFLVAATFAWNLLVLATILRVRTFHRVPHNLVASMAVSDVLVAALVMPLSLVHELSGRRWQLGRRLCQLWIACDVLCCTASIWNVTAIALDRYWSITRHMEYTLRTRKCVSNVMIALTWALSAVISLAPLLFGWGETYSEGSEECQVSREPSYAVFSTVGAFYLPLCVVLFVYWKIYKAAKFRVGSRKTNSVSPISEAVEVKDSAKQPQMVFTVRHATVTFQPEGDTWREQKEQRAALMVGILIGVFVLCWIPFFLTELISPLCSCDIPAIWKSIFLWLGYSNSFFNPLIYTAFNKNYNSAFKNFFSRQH
Sequence of PPAR gamma (P37231 whole entry): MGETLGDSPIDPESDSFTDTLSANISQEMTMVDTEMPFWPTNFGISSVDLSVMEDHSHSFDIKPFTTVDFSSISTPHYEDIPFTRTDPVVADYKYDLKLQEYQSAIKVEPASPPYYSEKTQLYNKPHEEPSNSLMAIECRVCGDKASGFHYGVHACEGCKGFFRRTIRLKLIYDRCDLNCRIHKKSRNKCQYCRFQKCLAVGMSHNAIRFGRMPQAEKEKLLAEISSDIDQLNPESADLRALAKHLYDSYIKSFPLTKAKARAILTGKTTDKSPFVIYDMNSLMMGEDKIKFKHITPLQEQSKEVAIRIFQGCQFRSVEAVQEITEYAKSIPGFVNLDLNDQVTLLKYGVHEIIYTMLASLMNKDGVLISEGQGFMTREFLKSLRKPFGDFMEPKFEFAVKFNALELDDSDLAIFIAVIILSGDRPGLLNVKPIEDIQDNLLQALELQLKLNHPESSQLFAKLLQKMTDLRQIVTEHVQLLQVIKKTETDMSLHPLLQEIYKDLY
Sequence of Serotonin 5-HT2C (P28335 33-458): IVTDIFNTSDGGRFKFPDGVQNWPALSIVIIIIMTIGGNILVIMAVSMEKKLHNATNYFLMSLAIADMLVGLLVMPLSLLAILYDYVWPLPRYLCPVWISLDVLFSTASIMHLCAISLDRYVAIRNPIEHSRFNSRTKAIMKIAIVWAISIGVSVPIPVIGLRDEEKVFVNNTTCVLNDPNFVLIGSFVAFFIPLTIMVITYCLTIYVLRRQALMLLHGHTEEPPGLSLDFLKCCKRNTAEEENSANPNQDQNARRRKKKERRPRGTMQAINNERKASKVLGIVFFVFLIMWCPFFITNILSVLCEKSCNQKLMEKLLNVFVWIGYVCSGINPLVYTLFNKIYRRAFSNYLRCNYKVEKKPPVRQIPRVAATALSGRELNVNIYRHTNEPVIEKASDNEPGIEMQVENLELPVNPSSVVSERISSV
Sequence of Neurokinin NK2 (P21452 whole entry): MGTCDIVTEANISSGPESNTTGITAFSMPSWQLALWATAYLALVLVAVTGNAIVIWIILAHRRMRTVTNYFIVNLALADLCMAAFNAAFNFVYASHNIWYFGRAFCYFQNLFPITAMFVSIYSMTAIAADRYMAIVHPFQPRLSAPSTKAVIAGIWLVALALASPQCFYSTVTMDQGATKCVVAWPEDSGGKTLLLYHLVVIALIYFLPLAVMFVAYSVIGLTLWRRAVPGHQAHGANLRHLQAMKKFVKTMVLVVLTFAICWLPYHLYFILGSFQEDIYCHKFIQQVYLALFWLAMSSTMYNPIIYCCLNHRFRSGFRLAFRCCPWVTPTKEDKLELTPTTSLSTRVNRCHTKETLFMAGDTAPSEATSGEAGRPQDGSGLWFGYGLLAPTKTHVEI
Sequence of Dopamine D3 (P35462 whole entry): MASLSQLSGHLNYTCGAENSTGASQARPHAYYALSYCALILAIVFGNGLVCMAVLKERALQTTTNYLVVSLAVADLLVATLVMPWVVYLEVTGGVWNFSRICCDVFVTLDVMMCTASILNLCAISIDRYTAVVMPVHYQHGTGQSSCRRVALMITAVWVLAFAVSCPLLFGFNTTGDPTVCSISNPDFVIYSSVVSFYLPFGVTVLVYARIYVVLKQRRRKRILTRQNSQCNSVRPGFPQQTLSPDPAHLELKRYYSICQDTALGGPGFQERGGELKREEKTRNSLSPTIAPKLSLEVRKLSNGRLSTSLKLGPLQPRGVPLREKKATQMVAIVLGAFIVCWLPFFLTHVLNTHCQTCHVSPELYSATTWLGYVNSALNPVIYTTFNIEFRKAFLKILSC
Sequence of Adrenergic beta2 (P07550 whole entry): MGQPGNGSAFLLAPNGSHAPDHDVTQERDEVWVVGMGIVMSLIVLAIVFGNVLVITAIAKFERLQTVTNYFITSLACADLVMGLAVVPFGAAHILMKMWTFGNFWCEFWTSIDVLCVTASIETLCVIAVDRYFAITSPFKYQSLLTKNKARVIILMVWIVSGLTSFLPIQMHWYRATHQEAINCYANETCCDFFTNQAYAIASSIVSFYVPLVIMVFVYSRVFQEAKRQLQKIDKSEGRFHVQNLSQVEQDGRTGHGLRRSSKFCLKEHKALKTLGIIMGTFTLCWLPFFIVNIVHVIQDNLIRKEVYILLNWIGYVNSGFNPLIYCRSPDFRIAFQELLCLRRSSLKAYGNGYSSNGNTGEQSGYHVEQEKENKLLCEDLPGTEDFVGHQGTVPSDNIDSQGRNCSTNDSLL
Sequence of Angiotensin-II AT2 (P50052 whole entry): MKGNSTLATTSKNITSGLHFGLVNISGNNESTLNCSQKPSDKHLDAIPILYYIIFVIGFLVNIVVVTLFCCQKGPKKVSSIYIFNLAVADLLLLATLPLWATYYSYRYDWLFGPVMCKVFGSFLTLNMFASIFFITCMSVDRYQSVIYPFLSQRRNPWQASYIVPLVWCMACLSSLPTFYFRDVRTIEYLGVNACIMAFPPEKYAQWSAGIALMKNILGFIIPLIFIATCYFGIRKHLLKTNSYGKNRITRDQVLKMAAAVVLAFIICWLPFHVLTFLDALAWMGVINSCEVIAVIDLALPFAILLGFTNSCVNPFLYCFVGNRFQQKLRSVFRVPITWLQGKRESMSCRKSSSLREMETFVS
Sequence of Muscarinic M3 (P20309 whole entry): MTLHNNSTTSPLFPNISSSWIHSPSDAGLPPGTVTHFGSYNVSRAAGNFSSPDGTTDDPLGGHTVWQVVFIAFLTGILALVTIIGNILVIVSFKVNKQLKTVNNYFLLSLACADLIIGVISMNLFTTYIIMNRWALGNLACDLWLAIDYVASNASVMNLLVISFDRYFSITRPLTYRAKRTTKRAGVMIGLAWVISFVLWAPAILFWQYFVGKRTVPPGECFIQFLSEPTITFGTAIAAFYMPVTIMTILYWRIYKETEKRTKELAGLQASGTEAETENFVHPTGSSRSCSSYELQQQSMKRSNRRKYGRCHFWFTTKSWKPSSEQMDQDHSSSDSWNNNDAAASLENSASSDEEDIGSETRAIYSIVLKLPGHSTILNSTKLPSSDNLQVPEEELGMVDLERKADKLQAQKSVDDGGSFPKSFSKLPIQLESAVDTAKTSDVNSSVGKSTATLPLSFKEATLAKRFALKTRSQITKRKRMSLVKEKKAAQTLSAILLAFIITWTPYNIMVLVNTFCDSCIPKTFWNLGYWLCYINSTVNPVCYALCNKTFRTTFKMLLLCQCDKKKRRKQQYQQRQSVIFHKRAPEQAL

CC(=O)[C@H]1CC[C@H]2[C@@H]3CC=C4C[C@@H](O)CC[C@]4(C)[C@H]3CC[C@]12C [pregnenolone, reference compound]
Percent inhibition of control specific binding ([1]; 10 µM): 9% | Percent inhibition of control specific binding ([2]; 10 µM): -25% | Percent inhibition of control specific binding ([3]; 10 µM): 11% | Percent inhibition of control specific binding ([4]; 10 µM): -12% | Percent inhibition of control specific binding [5]: 26% | Percent inhibition of control specific binding ([6]; 10 µM): -10% | Percent inhibition of control specific binding ([7]; 10 µM): -18% | Percent inhibition of control specific binding [8]: -8% | Percent inhibition of control specific binding [9]: -28% | Percent inhibition of control specific binding ([10]; 10 µM): -38% | Percent inhibition of control specific binding ([11]; 10 µM): 11% | Percent inhibition of control specific binding [12]: -19% | Percent inhibition of control specific binding ([13]; 10 µM): 11% | Percent inhibition of control specific binding ([14]; 10 µM): -9% | Percent inhibition of control specific binding ([15]; 10 µM): -19% | Percent inhibition of control specific binding ([16]; 10 µM): -5% | Percent inhibition of control specific binding ([17]; 10 µM): 26% | Percent inhibition of control specific binding ([18]; 10 µM): 4% | Percent inhibition of control specific binding ([19]; 10 µM): > 80% and 87% | Percent inhibition of control specific binding ([20]; 10 µM): -25% | Percent inhibition of control specific binding ([21]; 10 µM): 2% | Percent inhibition of control specific binding ([22]; 10 µM): 6% | Percent inhibition of control specific binding ([23]; 10 µM): -4% | Percent inhibition of control specific binding [24]: 26% | Percent inhibition of control specific binding ([25]; 10 µM): -4% | Percent inhibition of control specific binding ([26]; 10 µM): -1% | Percent inhibition of control specific binding ([27]; 10 µM): 21% | Percent inhibition of control specific binding ([28]; 10 µM): -16% | Percent inhibition of control specific binding ([29]; 10 µM): -1% | Percent inhibition of control specific binding [30]: -15% | Percent inhibition of control specific binding ([31]; 10 µM): 11% | Percent inhibition of control specific binding ([32]; 10 µM): -3% | Percent inhibition of control specific binding ([33]; 10 µM): 9% | Percent inhibition of control specific binding ([34]; 10 µM): 4% | Percent inhibition of control specific binding ([35]; 10 µM): 0% | Percent inhibition of control specific binding [36]: 38% | Percent inhibition of control specific binding ([37]; 10 µM): 8% | Percent inhibition of control specific binding [38]: 4% | Percent inhibition of control specific binding ([39]; 10 µM): 17% | Percent inhibition of control specific binding ([40]; 10 µM): 2% | Percent inhibition of control specific binding [41]: 13% | Percent inhibition of control specific binding ([42]; 10 µM): 11% | Percent inhibition of control specific binding [43]: -18% | Percent inhibition of control specific binding ([44]; 10 µM): 12% | Percent inhibition of control specific binding ([45]; 10 µM): 5%

COc1ccc(CO[C@H]2CC[C@@]3(C)C(=CC[C@H]4[C@@H]5CC[C@H](C(C)=O)[C@@]5(C)CC[C@@H]43)C2)cc1 [AEF0117, 3β-(4-methoxybenzyloxy)pregn-5-en-20-one]
inhibition at 10 µM [1, 46]: 3% | inhibition at 10 µM [2, 46]: 14% | inhibition at 10 µM [3, 46]: -20% | inhibition at 10 µM [4, 46]: -5% | Percent inhibition of control specific binding [5]: -4% | inhibition at 10 µM [6, 46]: -4% | inhibition at 10 µM [7, 46]: -8% | Percent inhibition of control specific binding [8]: -4% | Percent inhibition of control specific binding [9]: -15% | inhibition at 10 µM [10, 46]: -35% | inhibition at 10 µM [11, 46]: 1% | Percent inhibition of control specific binding [12]: -1% | inhibition at 10 µM [13, 46]: 2% | inhibition at 10 µM [14, 46]: 4% | inhibition at 10 µM [15, 46]: -14% | inhibition at 10 µM [16, 46]: 4% | inhibition at 10 µM [17, 46]: -11% | inhibition at 10 µM [18, 46]: 7% | inhibition at 10 µM [19, 46]: 29% | inhibition at 10 µM [20, 46]: 4% | inhibition at 10 µM [21, 46]: -18% | inhibition at 10 µM [22, 46]: -7% | inhibition at 10 µM [23, 46]: -2% | Percent inhibition of control specific binding [24]: 31% | inhibition at 10 µM [25, 46]: 0% | inhibition at 10 µM [26, 46]: -28% | inhibition at 10 µM [27, 46]: 10% | inhibition at 10 µM [28, 46]: -4% | inhibition at 10 µM [29, 46]: -3% | Percent inhibition of control specific binding [30]: -8% | inhibition at 10 µM [31, 46]: -1% | inhibition at 10 µM [32, 46]: -4% | inhibition at 10 µM [33, 46]: -4% | inhibition at 10 µM [34, 46]: 3% | inhibition at 10 µM [35, 46]: 4% | Percent inhibition of control specific binding [36]: 1% | inhibition at 10 µM [37, 46]: -5% | Percent inhibition of control specific binding [38]: -5% | inhibition at 10 µM [39, 46]: -18% | inhibition at 10 µM [40, 46]: -7% | Percent inhibition of control specific binding [41]: -29% | inhibition at 10 µM [42, 46]: -1% | Percent inhibition of control specific binding [43]: 12% | inhibition at 10 µM [44, 46]: -11% | inhibition at 10 µM [45, 46]: -2%
